Experimental data published in publication PMC11668526, “The satiety hormone cholecystokinin gates reproduction in fish by controlling gonadotropin secretion” (eLife, 2024).
Entries after “also recorded” stand apart in the source; their conditions may differ.

Experiments:
LH cells = assay: Ex vivo calcium imaging (RCaMP2), LH cells; assay type: cell-based, zebrafish
Method: (§1) Overall, whereas GnRH elicited a response in 95% of LH cells, only 56% of FSH cells responded to the treatment in the same fish (Figure 3E).
(§2) To functionally test the effect of CCK on gonadotroph activity, we applied the peptide (300 μl of 30 μg/ml CCK, 78.74 µM) to our ex vivo preparation and monitored the calcium response of the cells. […] The calcium response in FSH cells was highly synchronized (mean max cross-correlation coefficient, 0.7 ± 0.04; Figure 4B; Figure 4—figure supplement 1B). By contrast, the response of LH cells to CCK application was characterized by low mean of max cross-correlation coefficient values (0.43 ± 0.05; Figure 4B; Figure 4—figure supplement 1B).
(§3) Adult fish were euthanized using ice-cold water and decapitated. The head was transferred to ice-cold ACSF (124 mM NaCl, 3 mM KCl, 2 mM CaCl2, 2 mM MgSO4, 1.25 mM NaH2PO4, 26 mM NaHCO3, and 10 mM glucose (pH 7.2)) perfused with 5% CO2 and 95% O2. The heads were further dissected under a stereomicroscope. The ventral side of the head, including the jaw, gills, and mucus, was removed using fine forceps and microscissors, the optic nerves were cut and the eyes were removed. Next, the bone at the base of the skull that covers the pituitary (sella turcica) was removed using fine forceps. The head was placed in a dedicated chamber (Figure 3B) and stabilized with a slice anchor. The chamber had one inlet and one outlet, allowing for a constant flow of ACSF at a rate of 1 ml/min, and an additional inlet that was placed in proximity to the tissue for injections of stimuli. The total volume of ACSF in the chamber was 3 ml.
Imaging was performed in an inverted confocal fluorescent microscope (Leica SP8). R-CaMP2 activity was imaged at 4–10 Hz using the resonant scanner. The laser wavelength was 540 nm and the emission band was 630 nm. Images were taken using the 20x objective. Each imaging session lasted 10 min. Before and after each session, the tissue was imaged once for GFP (excitation, 488 nm, and emission, 530 nm) and R-CaMP2 (540 nm and 590 nm) in two separate channels. Images were processed using the Fiji program ([Schindelin et al., 2012]) for resolution using the Gaussian Blur filter and motion correction using the moco plugin ([Dubbs et al., 2016]).
(§4) To measure hormone secretion in response to salmon GnRH analogue (D-Ala6,Pro9-Net)-mammalian GnRH (Bachem Inc, Torrance, CA) or zebrafish CCK [D-Y-[SO3H]-L-G-W-M-D-F, synthesized by GL Biochem] stimulation, the medium was collected through the chamber outlet during the entire imaging session (10 ml per session in total). Each pituitary was imaged three times for 10 min: before, during, and after stimulation. The stimulus was applied manually as a pulse of 300 μl of 30 μg/μl (78.74 µM) peptide during the first 30 s of the imaging session. Hormones were measured in the fractions before and after stimulation using ELISA developed for common carp, which was established in the Levavi-Sivan lab using recombinant carp gonadotropins produced in yeast, and had been previously shown to be suitable for zebrafish ([Whitlock et al., 2019]).
Tissue viability was validated by monitoring the morphology and activity of the cells, looking at granulation and calcium changes. This specific preparation was also viable 2 hr after dissection, when all the cells responded to the different stimuli.
A composite of GFP-positive and RCaMP-positive cells was created to distinguish between LH and FSH cells. […]

LH secretion = assay: Ex vivo LH secretion into perfused medium, ELISA; assay type: cell-based, zebrafish; conditions: GnRH pulse 300 μl of 30 μg/μl, n=5, paired t-test
Excerpt: (§5) The calcium response observed in LH and FSH cells upon GnRH and CCK stimulation indicates a preferential stimulatory effect of the neuropeptides on each cell type. The effect of these neuropeptides on LH and FSH secretion was examined in order to determine the functional outcome of the stimulation. For that, we collected the medium perfused through our ex vivo system (Figure 3A and B) during our calcium imaging assays. The medium was subsequently used to measure LH and FSH secretion using a specific ELISA validated for zebrafish GTHs ([Hollander-Cohen et al., 2018]).
(§6) Adult fish were euthanized using ice-cold water and decapitated. […]
as §4, with “Each pituitary was imaged three times for 10 min: before, during, and after stimulation. The stimulus was applied manually as a pulse of 300 μl of 30 μg/μl (78.74 µM) peptide during the first 30 s of the imaging session.” left out

FSH plasma levels = assay: In vivo injection: FSH plasma levels (ELISA); design: species or system zebrafish; conditions: intraperitoneal, 100 ng/g body weight, 2 hr; n=10; Fig 5C and D
Method: (§7) Six-month-old zebrafish (five males and five females) were injected intraperitoneally with the following: (1) fish CCK peptide [(D-Y[SO3H]-L-G-W-M-D-F-NH (2), synthesized by GL Biochem] at a concentration of 10 ng/g or 100 ng/g body weight, 2) salmon GnRH analogue (D-Ala6,Pro9-Net)-mammalian GnRH (Bachem Inc, Torrance, CA) at a concentration of 100 ng/g body weight, (3) similar volumes of saline. Two hours post-injection, the fish were sedated using MS-222, bled from the heart as previously described ([Biran et al., 2012]), and decapitated. Pituitaries were dissected under a stereomicroscope and placed in Total RNA Isolation Reagent (Trizol). From each fish, between 15 μl and 20 μl of blood was collected. The blood was centrifuged at 970 × g 30 min and the plasma was separated and stored at −20 °C. LH and FSH expression in the pituitary was measured using real-time PCR (see Figure 5—source data 1 for primer list). RNA extraction, reverse transcription of RNA, and real-time PCR were carried out as previously described ([Biran et al., 2008]). FSH secretion was measured in the plasma using ELISA for common carp, which was established in the Levavi Sivan lab using recombinant carp gonadotropins from in the yeast, and had been previously shown to be suitable for zebrafish ([Hollander-Cohen et al., 2018]).

[1] = system: three types of GnRH receptors that exist in fish; design: method as in Zohar and Mylonas, 2001; conditions: ref Zohar and Mylonas, 2001; cited from earlier work
FSH secretion = assay: Ex vivo FSH secretion into perfused medium, ELISA; assay type: cell-based, zebrafish; conditions: GnRH pulse 300 μl of 30 μg/μl (78.74 µM), n=5, paired t-test
Excerpt: as §5, §6
as §4, with “Each pituitary was imaged three times for 10 min: before, during, and after stimulation. The stimulus was applied manually as a pulse of 300 μl of 30 μg/μl (78.74 µM) peptide during the first 30 s of the imaging session.” left out

FSH cells = assay: Ex vivo calcium imaging (RCaMP2), FSH cells; assay type: cell-based, zebrafish; conditions: 78.74 µM
Method: as §1, §2
as §3, with “The chamber had one inlet and one outlet, allowing for a constant flow of ACSF at a rate of 1 ml/min, and an additional inlet that was placed in proximity to the tissue for injections of stimuli. The total volume of ACSF in the chamber was 3 ml.” left out
as §4, with “Each pituitary was imaged three times for 10 min: before, during, and after stimulation. The stimulus was applied manually as a pulse of 300 μl of 30 μg/μl (78.74 µM) peptide during the first 30 s of the imaging session.” left out, “2019]). […]” for “2019]).”

[2] = system: LH expression in the pituitary; assay: In vivo injection: LH expression in pituitary (real-time PCR); design: species or system zebrafish; conditions: intraperitoneal, 100 ng/g body weight, 2 hr, n=10
Method: as §7

[3] = system: FSH cells in pituitary cell culture; conditions: ref Lin and Ge, 2009; cited from earlier work
Excerpt: GnRH has long been considered the common stimulator of gonadotropin secretion in vertebrates. However, accumulating evidence for GnRH-independent FSH secretion in several mammalian species has questioned the regulatory role of GnRH ([McCann et al., 2001]; [Padmanabhan et al., 1997]; [Culler and Negro-Vilar, 1987]; [Pau et al., 1991]).

(D-Ala6,Pro9-Net)-mammalian GnRH
calcium transient average half width, LH cells (LH cells; ex vivo brain-pituitary preparation, GnRH puff 78.74 µM, pH 7.2 ACSF, Fig 3-supplement 2: mean of 20 cell traces per fish, 3 females, 3 males): 48.6 s | calcium response to GnRH, LH cells (LH cells; ex vivo, GnRH 78.74 µM, n=10): synchronized increase of calcium in all luteinizing hormone (LH) cells; also recorded: strong and slow calcium rise | calcium transient average amplitude, LH cells (LH cells; ex vivo, GnRH puff 78.74 µM, Fig 3-supplement 2: mean of 20 cell traces per fish, 3 females, 3 males): 1.99 ∆F/F | percentage of cells responsive to GnRH stimulus, LH cells (LH cells; ex vivo, GnRH puff 78.74 µM, coefficient values higher than the 80 percentiles of basal values, n=10 (3 males, 7 females), p<0.001 vs FSH cells): 95% | mean of max cross-correlation coefficient of calcium traces, LH cells (LH cells; ex vivo, after GnRH puff 78.74 µM, basal 0.26 ± 0.02, n=10 (3 males, 7 females), mean ± SEM, p<0.0001): 0.66 ± 0.05 | LH secretion response to GnRH (LH secretion): significant rise in LH secretion | FSH expression and secretion response to GnRH injection (FSH plasma levels): did not reach statistical significance | binding to fish GnRH receptors [1]: effectively binds to the three types of GnRH receptors that exist in fish | FSH secretion response to GnRH (FSH secretion): not significant from the basal secretion | calcium response to GnRH, FSH cells (FSH cells; GnRH 300 μl, n=10): partial increase in follicle-stimulating hormone (FSH) cells; also recorded: inconsistent response of FSH cells | percentage of cells responsive to GnRH stimulus, FSH cells (FSH cells; GnRH puff 300 μl, coefficient values higher than the 80 percentiles of basal values, same fish, n=10 (3 males, 7 females)): 56% | fish displaying an increase in cross-correlation values from the basal state, FSH cells (FSH cells; GnRH puff 300 μl, percent of fish, n=10): 50% | LH expression in the pituitary after GnRH injection [2]: only affected LH expression in the pituitary; also recorded: Expression level increased significantly only in response to GnRH injection | FSH cells response to GnRH stimuli in pituitary cell culture [3]: lack of FSH cells response to GnRH stimuli in pituitary cell culture
